Data on five compounds can be found in ChEMBL document CHEMBL5252596, “Synthesis and Cytotoxicity Evaluation of Betulin Cycloolefin Derivatives by Ruthenium-Catalyzed Ring-Closing Metathesis” (J Nat Prod, 2023).

Data set [1] relates to HeLa. The data set is described as follows: Induction of apoptosis in human HeLa cells assessed as viable cells at 10 uM incubated for 24 hrs by Annexin V-PE staining based flow cytometry analysis (reference value: 97.43%). The format is functional. The note with it: read-out: Activity.
Data set [2] has as its system L929. In words: Induction of apoptosis in mouse L929 cells assessed as late apoptotic cells at 10 uM incubated for 24 hrs by Annexin V-PE staining based flow cytometry analysis (reference value: 0.53%). The format is functional.
Data set [3] has as its system L929. In words: Cytotoxicity against mouse L929 cells assessed as reduction in live cells at 10 uM incubated for 24 hrs by calcein-AM/PI staining based fluorescence microscopic analysis relative to control (reference value: 8.65%). The format is toxicity, cell-based. On the set-up: scale not given: the % may be the effect or the level left. The note with it: l929, 24 h.

Data set [4] has as its system HeLa. In words: Induction of apoptosis in human HeLa cells assessed as early apoptotic cells at 10 uM incubated for 24 hrs by Annexin V-PE staining based flow cytometry analysis (reference value: 2.55%). The format is functional. (Flow cytometry measures light scatter and fluorescence of single cells or particles in a stream.)
Data set [5] has as its system L929. In words: Induction of apoptosis in mouse L929 cells assessed as necrotic cells at 10 uM incubated for 24 hrs by Annexin V-PE staining based flow cytometry analysis (reference value: 0.00%). The format is functional.
In data set [6] the test system is L929. The data set is described as follows: Induction of apoptosis in mouse L929 cells assessed as early apoptotic cells at 10 uM incubated for 24 hrs by Annexin V-PE staining based flow cytometry analysis (reference value: 1.47%). The format is functional.
In data set [7] the test system is HeLa. In words: Induction of apoptosis in human HeLa cells assessed as necrotic cells at 10 uM incubated for 24 hrs by Annexin V-PE staining based flow cytometry analysis (reference value: 0.00%). The format is functional.
The nature of data set [8]: Cytotoxicity against mouse L929 cells assessed as cell growth inhibition at 10 uM incubated for 24 hrs by CCK-8 assay relative to control. To be noted: read-out: Activity. It counts as toxicity, cell-based. A general note: Tetrazolium dyes change colour on reduction, which living cells bring about.
In data set [9] the test system is HeLa. In words: Antiproliferative activity against human HeLa cells assessed as reduction in live cells at 10 uM incubated for 24 hrs by calcein-AM/PI staining based fluorescence microscopic analysis relative to control (reference value: 3.78%). It counts as functional. Further details: scale not given: the % may be the effect or the level left.
Data set [10] concerns L929. In words: Cytotoxicity against mouse L929 cells assessed as reduction in dead cells at 10 uM incubated for 24 hrs by calcein-AM/PI staining based fluorescence microscopic analysis relative to control (reference value: 0.38%). On the set-up: scale not given: the % may be the effect or the level left. It counts as toxicity, cell-based. To be noted: l929, 24 h.
For data set [11], the system named is HeLa. The data set is described as follows: Antiproliferative activity against human HeLa cells assessed as reduction in dead cells at 10 uM incubated for 24 hrs by calcein-AM/PI staining based fluorescence microscopic analysis relative to control (reference value: 0.15%). It counts as functional. Further details: scale not given: the % may be the effect or the level left.

The subject of data set [12] is HeLa. In words: Antiproliferative activity against human HeLa cells assessed as cell growth inhibition at 10 uM incubated for 24 hrs by CCK-8 assay relative to control. It counts as functional. On the set-up: scale not given: the % may be the effect or the level left.
Data set [13] deals with L929. The data set is described as follows: Induction of apoptosis in mouse L929 cells assessed as viable cells at 10 uM incubated for 24 hrs by Annexin V-PE staining based flow cytometry analysis (reference value: 98%). The format is functional. To be noted: read-out: Activity.
The test system of data set [14] is HeLa. The data set is described as follows: Induction of apoptosis in human HeLa cells assessed as late apoptotic cells at 10 uM incubated for 24 hrs by Annexin V-PE staining based flow cytometry analysis (reference value: 0.02%). The format is functional.

Consider `C=CCCC(=O)OC[C@]12CC[C@@H](C(=C)C)[C@@H]1[C@H]1CC[C@@H]3[C@@]4(C)CC[C@H](O)C(C)(C)[C@@H]4CC[C@@]3(C)[C@]1(C)CC2`, for which the viability at 10 µM with HeLa [1] is 58.2%; in the data set with L929 [13], 84.8%. Further, the Activity in the data set with L929 [2] was 5.86%; in the data set with L929 [3] it was 2.15%; in the data set on HeLa [4], 10.95%; with L929 [5], 0%; in the data set on L929 [6], 9.38%; in the data set with HeLa [7], 0.53%. The Activity is 1.4% in the data set with HeLa [9]; 2.83% in the data set on L929 [10]; 1.02% in the data set on HeLa [11]; 37% in the data set with HeLa [12]; 30.3% in the data set with HeLa [14]. The inhibition at 24 h, 10 µM in data set [8] is 29%.
With `C=C(C)[C@@H]1CC[C@]2(CO)CC[C@]3(C)[C@H](CC[C@@H]4[C@@]5(C)CC[C@H](O)C(C)(C)[C@@H]5CC[C@]43C)[C@@H]12` [BETULIN], the viability at 10 µM was determined as 87.8% in the data set on HeLa [1] and 96.5% with L929 [13]. Moreover, the Activity with L929 [2] was 0.61%; in the data set with L929 [3], 5.19%; in the data set on HeLa [4] it was 12.16%; in the data set with L929 [5] it was 0%; in the data set on L929 [6] it was 2.94%; in the data set with HeLa [7], 0%. Also, the Activity was 2.8% in the data set on HeLa [9]; 0.79% in the data set on L929 [10]; 0.53% in the data set with HeLa [11]; 58% in the data set with HeLa [12]; 0.03% in the data set with HeLa [14]. Moreover, in data set [8], the inhibition at 24 h, 10 µM is 55%.
On to `C/C1=C/CCCCCCCCC(=O)OC[C@]23CC[C@@H]1[C@@H]2[C@H]1CC[C@@H]2[C@@]4(C)CC[C@H](O)C(C)(C)[C@@H]4CC[C@@]2(C)[C@]1(C)CC3`, for which the viability at 10 µM with HeLa [1] amounted to 70.5%; with L929 [13] it was 77.2%. Further, the Activity is on record as 5.04% with L929 [2]; 3.67% with L929 [3]; 2.66% with HeLa [4]; 5.18% in the data set with L929 [5]; 12.6% in the data set on L929 [6]; 0.61% in the data set on HeLa [7]. In addition, the Activity with HeLa [9] was 1.29%; in the data set on L929 [10] it was 2.1%; in the data set on HeLa [11] it was 0.91%; with HeLa [14], 26.22%.
As to `C=CCCCCCCCCC(=O)OC[C@]12CC[C@@H](C(=C)C)[C@@H]1[C@H]1CC[C@@H]3[C@@]4(C)CC[C@H](O)C(C)(C)[C@@H]4CC[C@@]3(C)[C@]1(C)CC2`, the viability at 10 µM with HeLa [1] was 79%; in the data set with L929 [13], 82%. Further, the Activity in the data set with L929 [2] is given as 4.55%; in the data set with L929 [3], 4.65%; in the data set with HeLa [4] it was 0.98%; in the data set with L929 [5] it was 1.29%; in the data set with L929 [6] it was 0.75%; in the data set with HeLa [7], 1.41%. The Activity in the data set with HeLa [9] is 2.03%; with L929 [10], 1.77%; in the data set on HeLa [11], 0.69%; in the data set on HeLa [12], 55%; in the data set on HeLa [14] it was 18.58%. Further, the inhibition at 24 h, 10 µM in data set [8] came out at 47%.
For `C/C1=C/CCC(=O)OC[C@]23CC[C@@H]1[C@@H]2[C@H]1CC[C@@H]2[C@@]4(C)CC[C@H](O)C(C)(C)[C@@H]4CC[C@@]2(C)[C@]1(C)CC3`, the viability at 10 µM came out at 31.4% in the data set with HeLa [1] and 5.69% in the data set on L929 [13]. For the same compound, the Activity in the data set on L929 [2] is 72.6%; in the data set with L929 [3] it was 1.71%; in the data set with HeLa [4], 5.09%; in the data set on L929 [5] it was 21.59%; in the data set on L929 [6] it was 0.12%; in the data set on HeLa [7] it was 0.65%. Also, the Activity with HeLa [9] is listed as 0.46%; in the data set with L929 [10], 5.76%; in the data set with HeLa [11] it was 1.78%; with HeLa [14], 62.84%.
